For 17 molecules, DC50 results are on record in patent US20260028354A1, “TETRAHYDRONAPHTHALENE DERIVATIVES AS ESTROGEN RECEPTOR DEGRADERS” (REGENT OF THE UNIVERSITY OF MICHIGAN, priority 2022, published 2026).

A short description of the test: Western blot analysis for "B" compounds. Type of test: cell-based. Conditions: read-out: Traditional Western Degradation Potency (DC50). As for the experimental part:
Western Blot Analysis. Western blot analysis was performed essentially as described previously. The cells treated with indicated compounds were lysed in Radioimmunoprecipitation Assay Protein Lysis and Extraction Buffer (25 mmol/I. Tris.HCl, pH 7.6, 150 mmol/L, NaCl, 1% Nonidet P-40, 1% sodium deoxycholate, and 0.1% sodium dodecyl sulfate) containing proteinase inhibitor cocktail (Roche Diagnostics, Mannheim, Germany). Equal amounts of total protein were electrophoresed through 10% SDS-polyacrylamide gels after determination of protein concentration by BCA assay (Fisher Scientific, Pittsburgh, PA), The separated protein bands were transferred onto PVDF membranes (GE Healthcare Life Sciences, Marlborough, MA) and blotted against different antibodies, as indicated. The blots were scanned, and the band intensities were quantified using GelQuant.NET software provided by biochemlabsolutions.com. The relative mean intensity of target proteins was expressed after normalization to the intensity of glyceraldehyde-3-phosphate dehydrogenase bands.
(A western blot detects proteins with antibodies after separation by electrophoresis.)

`O=C1CCC(N2Cc3cc4c(cc3C2=O)CN(C[C@H]2CC[C@H](C(=O)N3CC(Oc5ccc([C@@H]6c7ccc(O)cc7CC[C@@H]6c6ccccc6)cc5)C3)CC2)C4)C(=O)N1` (stereo partly drawn) [Compound B294, 3-(6-(((1R,4r)-4-(3-(4-((1R,2S)-6-hydroxy-2-phenyl-1,2,3,4-tetrahydronaphthalen-1-yl)phenoxy)azetidine-1-carbonyl)cyclohexyl)methyl)-1-oxo-3,5,6,7-tetrahydropyrrolo[3,4-f]isoindol-2(1H)-yl)piperidine-2,6-dione]: the DC50 (as a rule, the concentration giving 50% degradation) was under 10 nM.

Regarding `O=C1CCC(N2C(=O)c3cc4c(cc3C2=O)CN(C(=O)[C@H]2CC[C@H](CN3CC(Oc5ccc([C@@H]6c7ccc(O)cc7CC[C@@H]6c6ccccc6)cc5)C3)CC2)C4)C(=O)N1` (stereo partly drawn) [Compound B281, 2-(2,6-dioxopiperidin-3-yl)-6-((1R,4r)-4-((3-(4-((1R,2S)-6-hydroxy-2-phenyl-1,2,3,4-tetrahydronaphthalen-1-yl)phenoxy)azetidin-1-yl)methyl)cyclohexane-1-carbonyl)-6,7-dihydropyrrolo[3,4-f]isoindole-1,3(2H,5H)-dione], the DC50 fell in the range of 10 to 100 nM. To `O=C1CCC(N2C(=O)c3cc4c(cc3C2=O)CCN(CC(=O)N2CC3(CCN(c5ccc([C@@H]6c7ccc(O)cc7CC[C@@H]6c6ccccc6)cc5)CC3)C2)CC4)C(=O)N1` (stereo partly drawn) [Compound B41, 2-(2,6-dioxopiperidin-3-yl)-7-(2-(7-(4-((1R,2S)-6-hydroxy-2-phenyl-1,2,3,4-tetrahydronaphthalen-1-yl)phenyl)-2,7-diazaspiro[3.5]nonan-2-yl)-2-oxoethyl)-6,7,8,9-tetrahydroazepino[4,5-f]isoindole-1,3(2H,5H)-dione] belongs over 100 nM.

On to `O=C1CCC(N2C(=O)c3cc4c(cc3C2=O)CN(CC(=O)N2CCC(n3cc(-c5ccc([C@@H]6c7ccc(O)cc7CC[C@@H]6c6ccccc6)cc5)cn3)CC2)C4)C(=O)N1` (stereo partly drawn) [Compound B58, 2-(2,6-dioxopiperidin-3-yl)-6-(2-(4-(4-(4-((1R,2S)-6-hydroxy-2-phenyl-1,2,3,4-tetrahydronaphthalen-1-yl)phenyl)-1H-pyrazol-1-yl)piperidin-1-yl)-2-oxoethyl)-6,7-dihydropyrrolo[3,4-f]isoindole-1,3(2H,5H)-dione], for which the DC50 is over 100 nM. To `O=C1CCC(N2C(=O)c3cc4c(cc3C2=O)CN(C(=O)[C@H]2CC[C@H](N3CC(Nc5ccc([C@@H]6c7ccc(O)cc7CC[C@@H]6c6ccccc6)cc5)C3)CC2)C4)C(=O)N1` (stereo partly drawn) [Compound B128, 2-(2,6-dioxopiperidin-3-yl)-6-((1S,4r)-4-(3-((4-((1R,2S)-6-hydroxy-2-phenyl-1,2,3,4-tetrahydronaphthalen-1-yl)phenyl)amino)azetidin-1-yl)cyclohexane-1-carbonyl)-6,7-dihydropyrrolo[3,4-f]isoindole-1,3(2H,5H)-dione] belongs 10 to 100 nM; to “3-(6-((1S,4s)-4-(3-((4-((1R,2S)-6-hydroxy-2-phenyl-1,2,3,4- tetrahydronaphthalcn-1-yl)phenyl)amino)azctidin-1- yl)cyclohexane-1-carbonyl)-1-oxo-3,5,6,7- tetrahydropyrrolo[3,4-f]isoindol-2(1H)-yl)piperidine-2,6-dione [Compound B110]”, over 100 nM; to `CC1(C(=O)N2CCC(N3Cc4cc5c(cc4C3)C(=O)N(C3CCC(=O)NC3=O)C5=O)CC2)CCN(c2ccc([C@@H]3c4ccc(O)cc4CC[C@@H]3c3ccccc3)cc2)CC1` (stereo partly drawn) [Compound B283, 2-(2,6-dioxopiperidin-3-yl)-6-(1-(1-(4-((1R,2S)-6-hydroxy-2-phenyl-1,2,3,4-tetrahydronaphthalen-1-yl)phenyl)-4-methylpiperidine-4-carbonyl)piperidin-4-yl)-6,7-dihydropyrrolo[3,4-f]isoindole-1,3(2H,5H)-dione], over 100 nM. To `O=C1CCC(N2C(=O)c3cc4c(cc3C2=O)CN(C2CCC(C(=O)N3CCCC(Oc5ccc([C@@H]6c7ccc(O)cc7CC[C@@H]6c6ccccc6)cc5)C3)CC2)C4)C(=O)N1` (mixture of isomers) [Compound B15, 2-(2,6-dioxopiperidin-3-yl)-6-(4-(3-(4-((1R,2S)-6-hydroxy-2-phenyl-1,2,3,4-tetrahydronaphthalen-1-yl)phenoxy)piperidine-1-carbonyl)cyclohexyl)-6,7-dihydropyrrolo[3,4-f]isoindole-1,3(2H,5H)-dione] belongs 10 to 100 nM. With `O=C1CCC(N2Cc3cc4c(cc3C2=O)CN(C(=O)CN2CCC3(CC2)CCN(c2ccc([C@@H]5c6ccc(O)cc6CC[C@@H]5c5ccccc5)cc2)CC3)C4)C(=O)N1` (stereo partly drawn) [Compound B105, 3-(6-(2-(9-(4-((1R,2S)-6-hydroxy-2-phenyl-1,2,3,4-tetrahydronaphthalen-1-yl)phenyl)-3,9-diazaspiro[5.5]undecan-3-yl)acetyl)-1-oxo-3,5,6,7-tetrahydropyrrolo[3,4-f]isoindol-2(1H)-yl)piperidine-2,6-dione], the DC50 was under 10 nM. Regarding `O=C1CCC(N2C(=O)c3cc4c(cc3C2=O)CN(CC2CCC3(CC2)CCN(C(=O)c2ccc([C@@H]5c6ccc(O)cc6CC[C@@H]5c5ccccc5)cc2)CC3)C4)C(=O)N1` (stereo partly drawn) [Compound B287, 2-(2,6-dioxopiperidin-3-yl)-6-((3-(4-((1R,2S)-6-hydroxy-2-phenyl-1,2,3,4-tetrahydronaphthalen-1-yl)benzoyl)-3-azaspiro[5.5]undecan-9-yl)methyl)-6,7-dihydropyrrolo[3,4-f]isoindole-1,3(2H,5H)-dione], the DC50 was over 100 nM. To `O=C1CCC(N2C(=O)c3cc4c(cc3C2=O)CN(C2CCN(CC3CN(c5ccc([C@@H]6c7ccc(O)cc7CC[C@@H]6c6ccc(F)cc6)cc5)C3)CC2)C4)C(=O)N1` (stereo partly drawn) [Compound B69, 2-(2,6-dioxopiperidin-3-yl)-6-(1-((1-(4-((1R,2S)-2-(4-fluorophenyl)-6-hydroxy-1,2,3,4-tetrahydronaphthalen-1-yl)phenyl)azetidin-3-yl)methyl)piperidin-4-yl)-6,7-dihydropyrrolo[3,4-f]isoindole-1,3(2H,5H)-dione] belongs over 100 nM; to `O=C1CCC(N2C(=O)c3cc4c(cc3C2=O)CN(C(=O)CN2CCC3(CC2)CCN(c2ccc([C@@H]5c6ccc(O)cc6CC[C@@H]5c5ccccc5)cc2)CC3)CC4)C(=O)N1` (mixture of isomers) [Compound B190, 2-(2,6-dioxopiperidin-3-yl)-6-(2-(9-(4-((1R,2S)-6-hydroxy-2-phenyl-1,2,3,4-tetrahydronaphthalen-1-yl)phenyl)-3,9-diazaspiro[5.5]undecan-3-yl)acetyl)-5,6,7,8-tetrahydro-1H-pyrrolo[3,4-g]isoquinoline-1,3(2H)-dione], over 100 nM; to `O=C1CCC(N2C(=O)c3cc4c(cc3C2=O)CN(C(=O)C2CCC(CN3CCN(c5ccc([C@@H]6c7ccc(O)cc7CC[C@@H]6c6ccccc6)cc5)CC3)CC2)C4)C(=O)N1` (stereo partly drawn) [Compound B114, 2-(2,6-dioxopiperidin-3-yl)-6-(4-((4-(4-((1R,2S)-6-hydroxy-2-phenyl-1,2,3,4-tetrahydronaphthalen-1-yl)phenyl)piperazin-1-yl)methyl)cyclohexane-1-carbonyl)-6,7-dihydropyrrolo[3,4-f]isoindole-1,3(2H,5H)-dione], over 100 nM. To `O=C1CCC(N2C(=O)c3cc4c(cc3C2=O)CN(CC(=O)N2CC3(CCN(c5ccc([C@@H]6c7ccc(O)cc7CC[C@@H]6c6ccccc6)cc5)CC3)C2)CC4)C(=O)N1` (mixture of isomers) [Compound B192, 2-(2,6-dioxopiperidin-3-yl)-6-(2-(7-(4-((1R,2S)-6-hydroxy-2-phenyl-1,2,3,4-tetrahydronaphthalen-1-yl)phenyl)-2,7-diazaspiro[3.5]nonan-2-yl)-2-oxoethyl)-5,6,7,8-tetrahydro-1H-pyrrolo[3,4-g]isoquinoline-1,3(2H)-dione] belongs 10 to 100 nM; to `O=C1CCC(N2C(=O)c3cc4c(cc3C2=O)CN(CC(=O)N2CC3(CCN(c5ccc([C@@H]6c7ccc(O)cc7CC[C@@H]6c6ccc(F)cc6)cc5)CC3)C2)C4)C(=O)N1` (mixture of isomers) [Compound B11, 2-(2,6-dioxopiperidin-3-yl)-6-(2-(7-(4-((1R,2S)-2-(4-fluorophenyl)-6-hydroxy-1,2,3,4-tetrahydronaphthalen-1-yl)phenyl)-2,7-diazaspiro[3.5]nonan-2-yl)-2-oxoethyl)-6,7-dihydropyrrolo[3,4-f]isoindole-1,3(2H,5H)-dione], under 10 nM. With `O=C1CCC(N2C(=O)c3cc4c(cc3C2=O)CN(Cc2ccc(N3CC(Nc5ccc([C@@H]6c7ccc(O)cc7CC[C@@H]6c6ccccc6)cc5)C3)nc2)C4)C(=O)N1` (stereo partly drawn) [Compound B117, 2-(2,6-dioxopiperidin-3-yl)-6-((6-(3-((4-((1R,2S)-6-hydroxy-2-phenyl-1,2,3,4-tetrahydronaphthalen-1-yl)phenyl)amino)azetidin-1-yl)pyridin-3-yl)methyl)-6,7-dihydropyrrolo[3,4-f]isoindole-1,3(2H,5H)-dione], the DC50 is over 100 nM. Regarding `O=C1CCC(N2C(=O)c3cc4c(cc3C2=O)CN(CC(=O)N2CC3(CC(Oc5ccc([C@@H]6c7ccc(O)cc7CC[C@@H]6c6ccccc6)cc5)C3)C2)C4)C(=O)N1` (stereo partly drawn) [Compound B276, 2-(2,6-dioxopiperidin-3-yl)-6-(2-(6-(4-((1R,2S)-6-hydroxy-2-phenyl-1,2,3,4-tetrahydronaphthalen-1-yl)phenoxy)-2-azaspiro[3.3]heptan-2-yl)-2-oxoethyl)-6,7-dihydropyrrolo[3,4-f]isoindole-1,3(2H,5H)-dione], the DC50 was over 100 nM.
